Results from US20050124632A1, “Remedies and/or preventives for diabetic ischemic heart diseases” (priority 2001, published 2005).

Legend:
[1] = tested on: contractile protein system; assay: Relation between Ca concentration and contractile force in saponin-skinned papillary muscle fibers under acidosis (pH 6.6); assay type: cell-based, Wistar rats; details: for Hill n / Maximum Force / PCa50 / Resting Force: acidosis (pH6.6) + 1 μM MCC-135
Protocol: Diabetic cardiomyopathy model is prepared in a similar manner to that in Example 1. The rats 7 months after the administration of STZ were subjected to the experiments in a similar manner to that in Example 1. The rats were sacrificed and the hearts of the rats were isolated 7 months after the administration of STZ. The following experiment was conducted according to the method of Kitada et al. which is the same as that in the Example 1. Left ventricular papillary muscles were cut off from the isolated heart in an ice cooled Krebs-Henseleit solution, and contraction-relaxation function of the papillary muscles was measured by Magnus method. Some of the papillary muscles were applied to a functional analysis on a relation between various calcium ion (Ca) concentrations and contractile force by skinned fiber method with saponin treatment. Acidosis was induced by lowering the pH of the solution from 7.0 in normal to 6.6. A mode of change of relation between the various calcium ion (Ca) concentrations and the contractile forces in the presence or absence of MCC-135 was studied.

[2] = tested on: Ca leakage from sarcoplasmic reticulum; assay: Ca leakage from sarcoplasmic reticulum in saponin-skinned papillary muscle fiber preparations (caffeine-induced tension as index); assay type: cell-based, Wistar rats; details: MCC-135 10^-7 M to 10^-5 M, skinned fiber preparation
Protocol: Diabetic cardiomyopathy was induced in 7-week old Wistar rats by an intravenous injection of 40 mg/kg of Streptozotocin via each tail (purchased from Sigma, hereinafter may be referred to as “STZ”) (J. Exp. Med., 1979, 149: 623-631). Since a severe cardiac dysfunction is observed 5 to 6 months after the administration of STZ (Malone, J. I., Schocken, D. D., Morrison, A. D., Gilbert-Barness, E., Diabetic cardiomyopathy and carnitine deficiency. J-Diabetes-Complications. 1999, 13(2): 86-90), the rats were subjected to the experiments 7 months after the administration of STZ. The rats were sacrificed and the hearts of the rats were isolated 7 months after the administration of STZ. The following experiment was conducted according to the method of Kitada et al. (J. Pharmacol. Exp. Ther. 1987, 243: 633-638). Skinned fiber preparations were prepared by saponin treatments of papillary muscles of the hearts isolated from the rats 7 months after the administration of STZ and the control rats. A medium for the preparations was changed from Ca (calcium ion) free buffer solution to a solution of pCa 6.7 to have sarcoplasmic reticulum uptake a certain amount of Ca in the presence of ATP. […]

`Cc1ccc(N2CCNCC2)c(S(=O)(=O)O)c1.O` [MCC-135, 5-methyl-2-(1-piperazinyl)benzenesulfonic acid monohydrate] was tested, and the “effect on the action of acidosis on cardiac muscle” value ([1]; diabetic cardiomyopathy) was “blocked the action of acidosis in the diabetic cardiomyopathy”, the “effect on the action of acidosis on cardiac muscle” value ([1]; normal hearts) was “had no effect on the action of acidosis on the normal hearts” and the Hill n ([1]; normal rat) was 3.17 ± 0.42. The “Maximum Force” value ([1]; normal rat) was 0.371 ± 0.027 mN/mm^2, the PCa50 ([1]; normal rat) was 5.43 ± 0.01 and the “Resting Force” value ([1]; normal rat) was 0 ± 0 n.s mN/mm^2. The Hill n ([1]; rat with cardiomyopathy) was 2.12 ± 0.20, the “Maximum Force” value ([1]; rat with cardiomyopathy) was 0.286 ± 0.020**, *** mN/mm^2 and the PCa50 ([1]; rat with cardiomyopathy) was 5.55 ± 0.07. For the same compound, the “Resting Force” value ([1]; rat with cardiomyopathy) was 0.000 ± 0.000**, *** mN/mm^2, the “effect on Ca leakage from sarcoplasmic reticulum” value ([2]; normal rats) was “had no effect” and the “effect on Ca leakage from sarcoplasmic reticulum” value ([2]; rats with diabetic cardiomyopathy (STZ, 7 months)) was “inhibited Ca leakage from the sarcoplasmic reticulum with diabetic cardiomyopathy in a concentration-dependant manner”.
